Experimental findings from US20040157911A1, “Storage-stable and bio-stable formulations of ace inhibitors, and methods for preparation thereof” (priority 1999, published 2004) are described below.

The structures appear in SMILES notation. Where a name gives a salt, the structure may show the parent alone.

The nature of this data set: Dispersion time of enalapril maleate in alcohol/water liquids. As to conditions: for Dispersion Time: 50 g in 200 mL, 200 rpm. It counts as physicochemical. The procedure: Enalapril maleate (50 grams) was added to 200 mL of liquid. The liquid ranged from 100% alcohol/0% water to 0% alcohol/100% water (see Table 1). The solutions were stirred at 200 rpm at room temperature using a Lightning Mixer (General Signal Controls, Rochester, N.Y.) with the mixing blade 1 cm from the bottom of the beaker. Enalapril maleate was considered “dispersed” when all of the drug powder was wetted and had become immersed in the liquid.

Consider `CCOC(=O)[C@H](CCc1ccccc1)N[C@@H](C)C(=O)N1CCC[C@H]1C(=O)O` [enalapril maleate], for which the “Time to full dispersion in alcohol” value (20 mg/ud in SD3A denatured alcohol (50 mg/ud), stirring at 500 rpm (preparation of Formula I)) is recorded as “less than 10 seconds”. For the same compound, the “Dispersion Time” value by setting is: (25%/75% alcohol/water, full value 1 minute, 15 seconds (seconds in next row)) 60 s; (50%/50% alcohol/water, room temperature) 45 s; (75%/25% alcohol/water, room temperature) 30 s; (85%/15% alcohol/water, room temperature) 28 s; (100%/0% alcohol/water, room temperature) 27 s.
